# Laboratory results reported in patent US12629359B2 (UNIVERSITA' DEGLI STUDI DI BRESCIA, priority 2020, dated 2026).
# “Also recorded” adds a separate entry of the source.
# Key:
# [1] = system: primary mesencephalic cultures; test: MTT cell viability assay; assay type: cell-based, mouse; conditions: 24 h
# Protocol: The cytotoxic effect of compounds treatment was measured by evaluating mitochondrial dehydrogenase activity using the MTT salt assay.
# Neuronal differentiated SK—N—SH cells were thus exposed to different concentrations of I-threo, IV-threo, I-erythro, V-threo and V-erythro as described above, and then used for the MTT cell viability assay.
# Animals: C57BL/6J wt mice (C57BL/6J) (Charles River, Wilmington, MA) used in this study, were bred in our animal house facility at the Department of Molecular and Translational Medicine of University of Brescia. Animals were maintained under a 12h light-dark cycle at a room temperature (rt) of 22° C. and had ad libitum food and water. All experiments were made in accordance to Directive 2010/63/EU of the European Parliament and of the Council of 22 Sep. 2010 on the protection of animals used. All experimental and surgical procedures conformed to the National Research Guide for the Care and Use of Laboratory Animals were approved by the Animal Research Committees of the University of Brescia (Protocol Permit 719/2015-PR). All achievements were made to minimize animal suffering and to reduce the number of animals used. Primary neuronal cultures from mesencephalic tissues were dissected from C57BL/6J 13-days embryos. Briefly, after mechanical dissociation the single cells were re-suspended in Neurobasal medium containing 100 μg/ml penicillin, 100 μg/ml streptomycin, 0.5 mM glutamine and 1% B27 supplement. Cells were then centrifuged and cell count and viability assays were performed using the Trypan Blue exclusion test. Cells were seeded onto poly-D-lysine-coated glass coverslides in 24-well plates (14 μg/mL) for immunocytochemistry (100000 cells/well). Cells were maintained at 37° C. under a humidified atmosphere of 5% CO2 and […] for at least 10 days in vitro (DIV 10) prior to their use to allow their maturation. At DIV 10, cells were treated with increasing concentrations (0.01 μM-0.1 μM-1 μM-[…]) of the different compounds (I-threo, IV-threo, I-erythro, V-threo, VI-threo). Twenty-four h after the treatments, culture medium was removed and 300 μL of MTT 0.5 mg/mL diluted in culture medium was added to each well. After 90′ incubation at 37° C., the medium was removed and 250 μL aliquots of DMSO were added to each well to solubilize the formazan crystals. Absorbance was measured at 570 nm using a microplate reader. Cell viability was expressed as absorbance value.
# [2] = system: alpha-synuclein aggregation in primary mesencephalic neurons; test: Alpha-synuclein aggregation in primary mouse midbrain neurons exposed to glucose deprivation; assay type: cell-based
# SYN120 tg mice [3] = test: Open-field motility after acute i.p. injection in SYN120 tg mice; assay type: in vivo, mouse; conditions: acute i.p. 10 mg/kg, 12 month-old SYN120 tg mice
# From the text: We investigated the ability of compound I-threo to stimulate the motility of Parkinson's disease mice more efficiently that MPH. […] All experiments were made in accordance with Directive 2010/63/EU of the European Parliament and of the Council of 22 Sep. 2010 on the protection of animals used. All experimental procedures conformed to the National Research Guide for the Care and Use of Laboratory Animals and were approved by the Animal Research Committees of the University of Brescia (Protocol Permit 719/2015-PR). Three different groups of 12 month-old SYN120 tg mice (N=3 animals per group) were used for the motility assay by using the open-field behavioural paradigm. The motility of the animals in the open-field arena was registered and analysed by using the Any-Maze system. […] The total distance travelled by the mice during 2.5 minutes intervals was plotted on graphs.
# SYN120 tg mice [4] = test: Immunohistochemistry of nigrostriatal alpha-synuclein deposition and striatal dopaminergic fibers after chronic treatment of SYN120 tg mice; assay type: in vivo, mouse; conditions: daily i.p. 5 mg/kg for 6 weeks
# From the text: After the behavioral studies animals were sacrificed by transcardiac perfusion to collect their brains, which were used for immunohistochemical studies aimed at evaluating the efficacy of compound I-threo to reduce pathological alpha-synuclein deposition and neuroprotection in the nigrostriatal system.
# First, we quantified aggregated alpha-synuclein pathological deposition by using an antibody specifically recognizing aggregated alpha-synuclein in the subtantia nigra and striatum of mice.
# Then alpha-synuclein aggregation was evaluated also by using Thioflavin-S a dye recognizing fibrillary aggregates. […] Please note that dopaminergic neurons or fibers in the images were labelled in light blue.
# Finally, we evaluated the neuroprotective effect of the chronic treatment with compound I-threo by quantifying the recovery of striatal dopaminergic fibers in the SYN120 tg mice treated with the compound when compared to the vehicle-treated animals.
# SYN120 tg mice [5] = test: Open-field motility after chronic 6 weeks treatment in SYN120 tg mice; assay type: in vivo, mouse; conditions: daily i.p. 5 mg/kg for 6 weeks, vs vehicle
# Protocol: Two groups of 12 month-old SYN120 tg mice (N=4 animals per group) were subjected to daily i.p. administration of either vehicle or compound I-threo (5 mg/kg) for 6 weeks. All experiments were made in accordance with Directive 2010/63/EU of the European Parliament and of the Council of 22 Sep. 2010 on the protection of animals used. All experimental or surgical procedures conformed to the National Research Guide for the Care and Use of Laboratory Animals and were approved by the Animal Research Committees of the University of Brescia (Protocol Permit 719/2015-PR). At the end of treatment, the total distance travelled by the mice was recorded in the open field arena. […] Student's t-test. N=3 for each experimental group.
SMILES,cell viability (MTT) at 100 μM [1],"alpha-synuclein inclusion formation (total immunofluorescence intensity and particle size) ([2]; I-threo, VI-threo 50 and 100 nM, MPH 100 nM, hydrochloride)",efficiency higher than that of MPH ([2]; primary neurons),motility (total distance travelled) in open field arena (SYN120 tg mice [3]),Thioflavin-S signal in substantia nigra and striatum (SYN120 tg mice [4]),aggregated alpha-synuclein in substantia nigra and striatum (SYN120 tg mice [4]; vs vehicle),striatal TH-positive dopaminergic fibers (SYN120 tg mice [4]; vs vehicle),total motility (total distance travelled) in open field (SYN120 tg mice [5]),cell viability (MTT) at 100 μM ([1]; hydrochloride),toxic effects (MTT) at the working concentrations ([1]; concentrations reducing aggregation or stimulating interaction)
COC(=O)[C@H](c1ccc(C)cc1)C1CCCCN1.Cl (stereo partly drawn) [I-erythro],did not result toxic,–,–,–,–,–,–,–,–,–
"COC(=O)[C@@H](c1ccc(C)cc1)C1CCCCN1.Cl (stereo partly drawn) [I-threo, threo methyl 2-(piperidin-2-yl)-2-(p-tolyl)acetate hydrochloride]",–,significantly reduce alpha-synuclein inclusion formation; also recorded: efficiently hinders alpha-synuclein aggregation,50-70%,improve the motility of SYN120 tg mice more efficiently than MPH,marked reduction of thioflavin-S signal,statistically significant reduction of aggregated alpha-synuclein,significant recovery of striatal TH-positive dopaminergic fibers,significant improvement in total motility,reduce the cell viability; also recorded: significant decrease in cell viability,did not exhibit toxic effects
